These are literature values, as cited in patent US9241502B2, “Animal feed compositions capable of reducing the incidence of fescue toxicosis in mammals” (priority 2005, dated 2016).

The data set relates to lactating dairy cattle. Particulars: as a single ingredient.

Turning to Vitamin E, the “effectiveness against fescue toxicosis” value is “not found to be effective”.
